Consider seven compounds from publication PMC4738305, “Metabolism and Disposition of Aditoprim in Swine, Broilers, Carp and Rats” (Scientific Reports, 2016).

A short description of data set [1]: Metabolite profiling of ADP in excreta, plasma and bile (LC-v.ARC/MS-IT-TOF). Conditions: for percentage of the individual metabolite compared with the total concentration of ADP-related: within 6 h after dosing; for Average percentage of ADP and its metabolites in total dose: Swine, Urine, single oral 5 mg/kg b.w. ^3H-ADP. It is filed as in vivo, swine. Here is the method: (§1) Animals (4 swine, 6 broilers, 6 carp, and 3 male and 3 female rats) were housed individually in clean, suspended wire-mesh metabolism cages, designed to separate the urine from the feces (carp were raised in individual aquaria). Each animal was weighed and assigned with a permanent identification number. A single dose of ^3 H-ADP (5 mg/kg b. w., 0.1 Ci/g) was administered via the oral gavage. Excreta were collected on ice at the pre-administration, in the period of 6, 12, and 24 h on day 1 d, and afterwards, intermittently in the period of 24 h up to 14 d. The piscine excreta were collected by changing and collecting raised water. The total volume or weight of each sample was measured and homogenized. The total radioactivity levels were determined through LSC for the recovery calculations. After the preparation, the samples were analyzed through LC/MS-IT-TOF with v. ARC radiometric detection (XenoBioticLaboratories, Inc.) for metabolite profiling. The pretreatment samples were used as controls to determine the background radioactivity or the endogenous nondrug-related ions observed within respective matrices or their extracts.
(§2) A total of 36 animals from each species (swine n = 24) were randomly assigned to six equal treatment groups and administered a single daily dose of ^3 H-ADP at 5 mg/kg b. w. (0.1 Ci/g) through oral gavage for 7 consecutive days. All the animals were housed on the basis of their group in the cages or aquaria throughout the whole study period. A group of animals was slaughtered through exsanguination under diethyl ether inhalation of anesthesia in the period of 6 h, 1, 3, 7, 14, and 21 d after the administration. The blood samples were immediately collected into the heparinized tubes and was centrifuged at 1920 × g at 4 °C for 10 min to obtain the plasma. The tissues from the heart, liver, spleen, lung, kidney, craw (broilers), stomach, intestine, fat, skin, muscle, thymus, pancreas, bile, bladder, hair (scale for carp), genital gland, adrenal glands, swim bladder (carp), brain, lymph, and bursa (broilers) were carefully excised and collected. The tissues were thoroughly rinsed with the deionized water to remove the residuary blood, blotted to dryness, and finally to perform the homogenization. In order to avoid cross-contamination the dissecting instruments were washed during the tissue procurements. The blank tissues were collected in order to provide control matrices. The total radioactivity levels in each sample were determined through LSC. The samples extracted from the plasma, bile, and tissues of the liver, kidney, muscle, and fat/skin were analyzed through LC/MS-IT-TOF and v. ARC radiometric detection for metabolite profiling. The blank samples were used as control to determine the background radioactivity or the endogenous nondrug-related ions observed within respective matrices or their extracts.
(§3) For metabolite profiling, the urine and feces samples from each animals were pooled proportionally to the excreted amount in each sampling period from 0 to 6 h, 6 h to 1 d, 1 to 3 d, 3 to 7 d, and 7 to 14 d post-dose, respectively. All samples were fully homogenized before the process. The pre-dose and blank samples served as the controls for determining the background radioactivity or the endogenous, nondrug-related ions observed within respective matrices or their extracts.
(§4) The urine samples (plasma, bile and raised water for carp) was subjected to solid-phase extraction with an Oasis MCX cartridge (3 mL, […]; Waters, Milford, MA, USA) for metabolite purification and enrichment. The pH value was adjusted to 2.8–3.2 by adding 1 M hydrochloric acid (HCl), and 2 mL of the sample was transferred into MCX cartridge, which was preconditioned with 3 mL of methanol and 3 mL of 0.1 mol/L HCl solution. The cartridge was washed with 3 mL of 0.1 mol/L HCl solution and was eluted with 5 mL of NH4OH/methanol (4:96, v:v). The effluent was concentrated to dryness under a stream of nitrogen at 40 °C. […]

Data set [2] is described as follows: Concentration and elimination of ADP and its metabolites in liver, kidney, muscle, fat/skin after oral ^3H-ADP for 7 d. It is filed as in vivo, broilers. Particulars: broiler chicken, kidney, oral, 5 mg/kg b.w. As for the experimental part:
as §2
(§5) The feces and tissues (2 g) were diluted with a mixture of methanol and chloroform (1:3, v:v; 2 mL/g homogenate). This procedure was carried out in a fume hood for the safety aspects. The pH value was adjusted to 9.0 with NH4OH. The mixture was vortexed and sonicated for 5 min and 10 min, respectively, and finally the samples were centrifuged at 7690 × g for 10 min. The supernatant was aspirated and then transferred into a new centrifuge tube. The obtained pellet was again subjected to the same process of vortex, ultrasonication, extraction, and centrifugation. The combined supernatant was concentrated under a stream of nitrogen in a water bath at 40 °C. The residue was reconstituted with 0.3 mL of methanol–water (1:9, v:v) before the injection into the LC-v. ARC/MS-IT-TOF system for analysis.
(§6) ADP and its metabolites in the prepared samples were determined with a v. ARC radiometric detector and a hybrid IT/TOF mass spectrometer connected to the HPLC system (Shimadzu Corp., Kyoto, Japan). The LC system was equipped with a solvent delivery pump (LC-20AD), an auto-sampler (SIL-20AC), a degasser (DGU-20 A 3), a photodiode array detector (SPD-M20A), a communication base module (CBM-20 A), and a column oven (CTO-20AC). The chromatographic separation was achieved by using an Agilent extend-C18 column (2.1 mm × 150 mm, 5 μm) with a gradient mobile phase of A (0.01% ammonia and 5 mM ammonium acetate in water) and B (methanol) at a flow rate of 0.2 mL/min. The column temperature was maintained at 35 °C. Various HPLC methods were performed because of the large number of different metabolites to be analyzed. For the porcine sample, method 1 started at 5% B and increased to 20% B over 35 min, then to 55% B by 60 min, followed by re-equilibration for another 10 min. For the remaining samples, method 2 started at 10% B and increased to 60% B over 30 min, subsequently was maintained at 60% B for an additional 10 min, and then changed to 90% B over 2 min and maintained for 2 min. Afterwards, a re-equilibration step (decreased to 10% B over 1 min and maintained at 10% B for additional 9 min) was followed. For each matrix, more than 98% of the radioactivity injected into the column was eluted during the running time of the gradient program. […]

Experiment in data set [3]: as above
The format is in vivo, swine. Particulars: swine, oral, 5 mg/kg b.w. As for the experimental part:
as §2, §5, §6

Data set [4] is described as follows: Metabolite profiling of ADP in excreta, plasma and bile (LC-v.ARC/MS-IT-TOF). The format is in vivo, broilers. As for the experimental part: as §1, §2, §3, §4
Experiment in data set [5]: as above
The format is in vivo, rats. As for the experimental part: as §1, §2, §3, §4

Data set [6] is described as follows: Concentration and elimination of ADP and its metabolites in liver, kidney, muscle, fat/skin after oral ^3H-ADP for 7 d. Particulars: rat, liver, oral, 5 mg/kg b. w. It is filed as in vivo, rats. As for the experimental part: as §2, §5, §6
For data set [7] the following is noted: rats, within 3 d; cited from earlier work.

With `COc1cc(Cc2cnc(N)nc2N)cc(O)c1N(C)C` [A3, 3-OH-ADP], the “percentage of the individual metabolite compared with the total concentration of ADP-related” value (“percentage of the individual metabolite” below) was 9.7% in data set [1] (Swine Urine) and 3.5% in data set [4] (Broilers Extra (excreta), within 6 h after dosing). For the same compound, the “Average percentage of ADP and its metabolites in total dose” value (shortened to “Average percentage”) in data set [1] is on record as 5.4%; in data set [4] (Broilers, Excreta, single oral 5 mg/kg b.w. ^3H-ADP), 6.4%. Moreover, the concentration at 0.25 d in data set [2] was 110 ± 90 ng/g; in data set [3] (liver) it was 940 ± 170 ng/g.
For the compound `CNc1c(O)cc(C(O)c2cnc(N)nc2N)cc1OC` (stereo not shown) [A4, 3-OH-4-methylamino-ADP], the “percentage of the individual metabolite” value in data set [1] (Swine Plasma) stood at 4.6%; in data set [1] (Swine Urine), 4.8%. For the same compound, the “Average percentage” value in data set [1] turned out to be 3.1%. Besides, the concentration at 0.25 d in data set [3] (kidney) came out at 520 ± 80 ng/g; in data set [3] (liver), 320 ± 30 ng/g. Moreover, the concentration at 1 d in data set [3] (kidney) came to 480 ± 260 ng/g; in data set [3] (liver), 270 ± 40 ng/g.
Consider `CNc1c(OC)cc(C(O)c2cnc(N)nc2N)cc1OC` (stereo not drawn) [A5, 4-methylamino-α-OH-ADP], for which the entries for the “percentage of the individual metabolite” value in data set [1] (Swine Plasma) and in data set [1] (Swine Urine) were 1.6% and 1.2%, respectively. For the same compound, the “Average percentage” value in data set [1] is 1.9%. Further, the concentration at 0.25 d in data set [3] (kidney) amounted to 710 ± 110 ng/g; in data set [3] (liver) it was 430 ± 40 ng/g. In addition, the concentration at 1 d in data set [3] (kidney) turned out to be 270 ± 150 ng/g; in data set [3] (liver), 260 ± 40 ng/g.
For `COc1cc(C(O)c2cnc(N)nc2N)cc(O)c1N(C)C` (stereo not drawn) [A6, 3-OH-α-OH-ADP], the “percentage of the individual metabolite” value was 3.8% in data set [1] (Swine Plasma); 6.4% in data set [1] (Swine Urine); 3.1% in data set [5] (Rats Urine, within 6 h after dosing). For the same compound, the “Average percentage” value in data set [1] was determined as 3.7%; in data set [5] (Rat, Urine, single oral 5 mg/kg b.w. ^3H-ADP) it was 0.5%. Besides, the concentration at 0.25 d in data set [3] (kidney) amounted to 690 ± 100 ng/g; in data set [3] (liver), 360 ± 40 ng/g; in data set [6], 10 ± 10 ng/g. For the same compound, the concentration at 1 d in data set [3] (kidney) was 60 ± 30 ng/g.
Consider `CNc1c(O)cc(Cc2cnc(N)nc2N)cc1OC` [A7, 4-methylamino-3-OH-ADP], for which, in data set [1] (Swine Urine), the “percentage of the individual metabolite” value was 1.9%. Further, the “Average percentage” value in data set [1] was found to be 1.8%. Moreover, in data set [3] (liver), the concentration at 0.25 d came out at 790 ± 170 ng/g and the concentration at 1 d was found to be 450 ± 90 ng/g.
Turning to `COc1cc(C(O)c2cnc(N)nc2N)cc(OC)c1N(C)C` (stereo not drawn) [A8, α-OH-ADP], in data set [1] (Swine Urine), the “percentage of the individual metabolite” value stood at 1.4%. Also, the “Average percentage” value in data set [1] turned out to be 1.0%. In addition, in data set [3] (liver), the concentration at 0.25 d came to 20 ng/g.
As for `COc1cc(Cc2cnc(N)nc2N)cc(OC)c1OC` [TMP, trimethoprim], the oral dose recovered entry in data set [7] is “more than 95 % of the oral dose”.
